Measured values: patent publication US7491827B2, “Aryl sulfonamides useful as inhibitors of chemokine receptor activity” (Millennium Pharmaceuticals, Inc., priority 2003, dated 2009)

Target: T1, cloned human CCR8 receptor stably expressed in L1.2 cells (Homo sapiens, UniProt P51685)
T1 construct: expressed in transfected cells
Assay: whole cell binding screen: inhibition of biotinylated human I309 binding to CCR8 (FMAT 8100 HTS)
Conditions: Ki of compounds to inhibit I-309 binding to CCR8, L1.2/hCCR8 cells, biotinylated human I-309, 10 point concentration response starting at 10 μM
Outline: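 L1.2 murine pre-B cells stably expressing human CCR8 (4.0×10^5 cells/mL) in HBSS/HEPES/fatty-acid-free BSA/azide buffer were mixed with biotinylated human I309 and compounds for 0.5 h, read by FMAT fluorescence. 10-point curves from 10 μM final; percent inhibition normalized to no-inhibitor and 100 nM unlabeled I309 controls.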

T1 sequence (P51685 whole entry): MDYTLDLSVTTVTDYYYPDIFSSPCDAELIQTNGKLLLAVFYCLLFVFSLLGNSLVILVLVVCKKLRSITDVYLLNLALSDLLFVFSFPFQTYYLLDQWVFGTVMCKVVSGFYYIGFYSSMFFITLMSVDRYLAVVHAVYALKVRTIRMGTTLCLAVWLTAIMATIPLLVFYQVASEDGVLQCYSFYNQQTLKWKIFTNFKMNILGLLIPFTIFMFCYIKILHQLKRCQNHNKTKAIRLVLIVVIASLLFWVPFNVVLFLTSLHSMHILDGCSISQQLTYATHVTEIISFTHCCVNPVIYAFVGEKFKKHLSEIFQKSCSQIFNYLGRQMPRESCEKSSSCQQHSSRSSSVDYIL

SMILES | Ki [nM]
Cc1ccccc1C(=O)Nc1ccc(S(=O)(=O)NC2CCN(C(=O)C3CCCC3)CC2)c2ccccc12 [Compound C-38, N-[4-(1-Cyclopentanecarbonyl-piperidin-4-ylsulfamoyl)-naphthalen-1-yl]-2-methyl-benzamide] | < 500
CCNC(=O)N1CCC(NS(=O)(=O)c2ccc(NC(=O)c3ccccc3C)c3ccccc23)CC1 [Compound C-34, 4-[4-(2-Methyl-benzoylamino)-naphthalene-1-sulfonylamino]-piperidine-1-carboxylic acid ethylamide] | < 500

Same assay, conditions: L1.2/hCCR8 cells, biotinylated human I-309, 10 point concentration response starting at 10 μM; read-out: Ki of compounds to inhibit I-309 binding to CCR8

Ki [nM] | SMILES
< 30000 | O=C(Nc1ccccc1Cl)c1ccc(S(=O)(=O)NC2CCNCC2)c2ccccc12 [Compound F-17, 4-(Piperidin-4-ylsulfamoyl)-naphthalene-1-carboxylic acid (2-chloro-phenyl)-amide]
< 500 | CCOC(=O)N1CCC(NS(=O)(=O)c2cccc3c(C(=O)NC4CCCCC4C)cccc23)CC1 (racemic) [Compound H-24, (±)-4-[5-(2-Methyl-cyclohexylcarbamoyl)-naphthalene-1-sulfonylamino]-piperidine-1-carboxylic acid ethyl ester]
< 30000 | O=C(Nc1cccc2c(S(=O)(=O)Nc3ccc(F)cc3)cccc12)c1ccccc1 [Compound H-4, N-[5-(4-Fluoro-phenylsulfamoyl)-naphthalen-1-yl]-benzamide]
< 500 | Cc1ccccc1C(=O)Nc1cccc2c(S(=O)(=O)NC3CCN(C(=O)N4CCOCC4)CC3)cccc12 [Compound H-11, 2-Methyl-N-{5-[1-(morpholine-4-carbonyl)-piperidin-4-ylsulfamoyl]-naphthalen-1-yl}-benzamide]
< 500 | CCOC(=O)N1CCC(NS(=O)(=O)c2ccc(C(=O)N(C)C3CCCCC3)c3ccccc23)CC1 [Compound F-27, 4-[4-(Cyclohexyl-methyl-carbamoyl)-naphthalene-1-sulfonylamino]-piperidine-1-carboxylic acid ethyl ester]
< 1000 | CCOC(=O)N1CCC(NS(=O)(=O)c2cccc3c(C(=O)Nc4cccnc4)cccc23)CC1 [Compound H-35, 4-[5-(Pyridin-3-ylcarbamoyl)-naphthalene-1-sulfonylamino]-piperidine-1-carboxylic acid ethyl ester]
< 500 | CCNC(=O)N1CCC(NS(=O)(=O)c2ccc(C(=O)NC3CCCCC3)c3ccccc23)CC1 [Compound F-8, 4-(4-Cyclohexylcarbamoyl-naphthalene-1-sulfonylamino)-piperidine-1-carboxylic acid ethylamide]
< 500 | COCC(=O)N1CCC(NS(=O)(=O)c2ccc(NC(=O)c3ccccc3C)c3c2CCCC3)CC1 [Compound E-18, N-{4-[1-(2-Methoxy-acetyl)-piperidin-4-ylsulfamoyl]-5,6,7,8-tetrahydro-naphthalen-1-yl}-2-methyl-benzamide]
< 500 | CCOC(=O)N1CCC(NS(=O)(=O)c2cccc3c(CNCc4ccc(Cl)cc4)cccc23)CC1 [Compound H-45, 4-{5-[(4-Chloro-benzylamino)-methyl]-naphthalene-1-sulfonylamino}-piperidine-1-carboxylic acid ethyl ester]
< 500 | CCOC(=O)N1CCC(NS(=O)(=O)c2ccc(CNCc3ccccc3Cl)c3ccccc23)CC1 [Compound G-21, 4-{4-[(2-Chloro-benzylamino)-methyl]-naphthalene-1-sulfonylamino}-piperidine-1-carboxylic acid ethyl ester]
< 5000 | Cc1ccccc1C(=O)Nc1ccc(S(=O)(=O)N[C@H]2CCNC[C@@H]2CC(C)C)c2ccccc12 [Compound J-56]
< 30000 | Cc1ccccc1C(=O)Nc1ccc(S(=O)(=O)NCCCN2CCOCC2)c2c1CCCC2 [Compound E-25, 2-Methyl-N-[4-(3-morpholin-4-yl-propylsulfamoyl)-5,6,7,8-tetrahydro-naphthalen-1-yl]-benzamide]
< 500 | CCOC(=O)N1CCC(NS(=O)(=O)c2ccc(CNCc3ccco3)c3ccccc23)CC1 [Compound G-13, 4-(4-{[(Furan-2-ylmethyl)-amino]-methyl}-naphthalene-1-sulfonylamino)-piperidine-1-carboxylic acid ethyl ester]
< 500 | CCCC(=O)N1CCC(NS(=O)(=O)c2cccc3c(C(=O)NC4CCCCC4C)cccc23)CC1 (racemic) [Compound H-29, (±)-5-(1-Butyryl-piperidin-4-ylsulfamoyl)-naphthalene-1-carboxylic acid (2-methyl-cyclohexyl)-amide]
< 500 | CCOC(=O)N1CCC(NS(=O)(=O)c2ccc(NC(=O)C3CCCCC3)c3c2CCCC3)CC1 [Compound E-6, 4-(4-(Cyclohexanecarbonyl-amino)-5,6,7,8-tetrahydro-naphthalene-1-sulfonylamino)-piperidine-1-carboxylic acid ethyl ester]
< 1000 | Cc1ccccc1C(=O)Nc1ccc(S(=O)(=O)NC2CCN(C(=O)OC(C)(C)C)CC2)c2c1CCC2 [Compound H-66, 4-[7-(2-Methyl-benzoylamino)-indane-4-sulfonylamino]-piperidine-1-carboxylic acid tert-butyl ester]
< 500 | CCCC(=O)N1CCC(NS(=O)(=O)c2ccc(NC(=O)c3ccccc3C)c3c2CCC3)C1 (racemic) [Compound H-71, (±)-N-[7-(1-Butyryl-pyrrolidin-3-ylsulfamoyl)-indan-4-yl]-2-methyl-benzamide]
< 1000 | CCOC(=O)N1CCC(NS(=O)(=O)c2cccc3c(NC(=O)c4ccccc4C)cccc23)CC1 [Compound H-12, 4-[5-(2-Methyl-benzoylamino)-naphthalene-1-sulfonylamino]-piperidine-1-carboxylic acid ethyl ester]
< 5000 | Cc1ccccc1C(=O)Nc1ccc(S(=O)(=O)N[C@@H]2[C@H](C)CNC[C@@H]2C)c2ccccc12 [Compound J-53]
< 500 | CCOC(=O)N1CCC(NS(=O)(=O)c2cccc3c(C(=O)Nc4ccccc4Cl)cccc23)CC1 [Compound H-34, 4-[5-(2-chloro-phenylcarbamoyl)-naphthalene-1-sulfonylamino]-piperidine-1-carboxylic acid ethyl ester]

The remaining lines, values behind:

SMILES | Ki [nM]
CC(C)(C)OC(=O)N1CCC(NS(=O)(=O)c2ccc(NC(=O)C3CCC3)c3ccccc23)CC1 [Compound B-18, 4-[4-(Cyclobutanecarbonyl-amino)-naphthalene-1-sulfonylamino]-piperidine-1-carboxylic acid tert-butyl ester] | < 30000
COc1ccc(NS(=O)(=O)c2ccc(NC(=O)c3cccc(OC)c3)c3ccccc23)cc1 [Compound B-5, 3-Methoxy-N-[4-(4-methoxy-phenylsulfamoyl)-naphthalen-1-yl]-benzamide] | < 1000
Cc1ccccc1C(=O)Nc1ccc(S(=O)(=O)N[C@@H]2[C@H](C)CN(Cc3ccccc3)C[C@@H]2C)c2ccccc12 [Compound A-46, (±)-(cis, cis)-N-[4-(1-Benzyl-3,5-dimethyl-piperidin-4-ylsulfamoyl)-naphthalen-1-yl]-2-methyl-benzamide] | < 30000
CCOC(=O)N1CC[C@H](NS(=O)(=O)c2ccc(NC(=O)c3cccnc3C)c3ccccc23)[C@H](C)C1 (racemic) [Compound D-6, (±)-(cis)-3-Methyl-4-{4-[(2-methyl-pyridine-3-carbonyl)-amino]-naphthalene-1-sulfonylamino}-piperidine-1-carboxylic acid ethyl ester] | < 500
CCOC(=O)C1CN(C(=O)CN(C)C)CCC1NS(=O)(=O)c1ccc(NC(=O)c2ccccc2C)c2ccccc12 (stereo not shown) [Compound C-83, 1-(2-Dimethylainino-acetyl)-4-[4-(2-methyl-benzoylamino)-naphthalene-1-sulfonylamino]-piperidine-3-carboxylic acid ethyl ester] | < 30000
CN(C)CCNS(=O)(=O)c1ccc(NC(=O)c2ccccc2)c2ccccc12 [Compound A-9, N-[4-(2-Dimethylamino-ethylsulfamoyl)-naphthalen-1-yl]-benzamide] | < 30000
CCNC(=O)N1CCC(NS(=O)(=O)c2ccc(NC(=O)c3ccccc3F)c3ccccc23)CC1 [Compound C-100, 4-[4-(2-Fluoro-benzoylamino)-naphthalene-1-sulfonylamino]-piperidine-1-carboxylic acid ethylamide] | < 500
CCNC(=O)N1CCC(NS(=O)(=O)c2ccc(NC(=O)c3ccccc3C)c3ccccc23)C(C)(C)C1 (racemic) [Compound C-21, (±)-3,3-Dimethyl-4-[4-(2-methyl-benzoylamino)-naphthalene-1-sulfonylamino]-piperidine-1-carboxylic acid ethylamide] | < 500
Cc1ccccc1C(=O)Nc1ccc(S(=O)(=O)N[C@H]2CCN(C(=O)N(C)C)C[C@H]2C)c2ccccc12 (racemic) [Compound C-29, (±)-cis-3-Methyl-4-[4-(2-methyl-benzoylandno)-naphthalene-1-sulfonylamio]-piperidine-1-carboxylic acid dimethylamide] | < 500
Cc1ccccc1C(=O)Nc1ccc(S(=O)(=O)NC2CCN(C(=O)OC(C)C)CC2)c2ccccc12 [Compound C-37, 4-[4-(2-Methyl-benzoylamino)-naphthalene-1-sulfonylamino]-piperidine-1-carboxylic acid isopropyl ester] | < 500
CCOC(=O)N1CCC(NS(=O)(=O)c2ccc(NC(=O)c3cccc(C)c3C)c3ccccc23)CC1 [Compound B-27] | < 500
CCOC(=O)N1CCCC(NS(=O)(=O)c2ccc(NC(=O)c3ccccc3C)c3ccccc23)C1 (racemic) [Compound C-115, (±)-3-[4-(2-Methyl-benzoylamno)-naphthalene-1-sulfonylamino]-piperidine-1-carboxylic acid ethyl ester] | < 500
